# Source: patent US12460243B2, “Mass spectrometry determination of the sensitivity or resistance of bacteria to an antibiotic” (priority 2019, dated 2025)
# Bridge positions count the residues as written; N and C are the ends. Square brackets hold non-standard residues; d marks the D form. Peptide text beside a SMILES is read from it. * marks the point of attachment. Heptanoyl(6-Me) = CC(C)CCCCC(=O)*; Dab = NCC[C@H](N)C(=O)O
# What was measured:
# Assay type in all cases: cell-based
# Escherichia coli [1] = assay: microdilution in broth (reference method)
# Protocol: (§1) So as to be able to evaluate the efficacy of the method according to the invention, the different strains were analyzed beforehand by microdilution in broth in order to determine their status (sensitive or resistant). This method is regarded as the reference method by the CLSI and EUCAST.
# Klebsiella pneumoniae = assay: microdilution in broth (reference method)
# Protocol: as §1
# Acinetobacter baumannii [2] = assay: microdilution in broth (reference method); conditions: by microdilution in broth
# Protocol: as §1
# (§2) As before, the different strains were analyzed beforehand by microdilution in broth in order to determine their status (sensitive or resistant).
# Pseudomonas aeruginosa [3] = assay: microdilution in broth (reference method); conditions: by microdilution in broth
# Protocol: as §1, §2
# Escherichia coli [4] = assay: MALDI-TOF detection of characteristic proteins released after incubation with colistin (examples II-IV, centrifugation); conditions: colistin 2.5 mg/ml
# Protocol: This test was carried out using the following steps: • preparing a suspension of strains EC_S and EC_R of E. coli at 1 McFarland (McF) in water (suspension medium, bioMérieux reference 70700), • preparing a solution of colistin sulfate (Sigma, reference C4461) at a concentration of 5 mg/ml in pure water (taking into account the colistin titer indicated by the manufacturer), • mixing 250 μl of each suspension with 250 μl of colistin to obtain a solution of microorganism at 0.5 McF and at a concentration of 2.5 mg/ml of colistin, • homogenizing using a vortex for 5 seconds, • incubating the mixture for 4 hours at 37° C., • homogenizing using a vortex for 5 seconds, • centrifuging at 4700 rev/min (1500 g) for 5 minutes, • depositing 1 μl of the supernatant on a disposable target (bioMérieux reference 410893), • depositing 1 μl of HCCA matrix (bioMérieux, reference 411071) on the drop of supernatant, • analyzing the sample by MALDI-TOF spectrometry on VITEK-MS Plus (bioMérieux) with a method suitable for microbiology, i.e. with a positive ionization mode and a mass range from 2000 to 20 000 Th. • accumulating 100 profiles from 10 firings and comparing the data with the data contained in the databases for E. coli, • observing the presence or absence of protein peaks characteristic of E. coli. • determining the sensitivity to colistin if proteins characteristic of E. coli are detected or the resistance if no protein of E. coli is detected.
# The E. coli strains S and R16 are analyzed with the same protocol as in example II apart from the incubation time of 30 minutes at 37° C. The S strain is sensitive to colistin and the R16 strain is resistant to colistin.
# The same E. coli strains R16 and S are analyzed with the same protocol as in example III apart from incubation at 50° C.
# Acinetobacter baumannii [5] = assay: MALDI-TOF detection of released characteristic proteins, 10 min at 50° C., filtration (example V); conditions: colistin 20 μg/ml, 10 min 50° C.
# Protocol: (§3) The tests were carried out using the following steps: • preparing a suspension of microorganism at 2 McF in water (suspension medium, bioMérieux reference 70700), • preparing a solution of colistin sulfate (Sigma reference C4461) at a concentration of 2× in pure water (taking into account the colistin titer indicated by the manufacturer).
# (§4) The strains of A. baumannii (AB_S044, AB_S045, AB_S046, AB_R-E105) and of Pseudomonas aeruginosa (PA_S062, PA_SE64, PA_RE66, PA_RE68) are analyzed with the protocol described in example V. Thus, they are incubated in the presence of 20 μg/ml of colistin.
# Pseudomonas aeruginosa [6] = assay: as above; conditions: colistin 20 μg/ml, 10 min 50° C.
# Protocol: as §3, §4
structure (smiles),measurement,setting,value
CC(C)CCCCC(=O)N[C@@H](CCN)C(=O)N[C@H](C(=O)N[C@@H](CCN)C(=O)N[C@H]1CCNC(=O)[C@H]([C@@H](C)O)NC(=O)[C@H](CCN)NC(=O)[C@H](CCN)NC(=O)[C@H](CC(C)C)NC(=O)[C@@H](CC(C)C)NC(=O)[C@H](CCN)NC1=O)[C@@H](C)O [colistin] ({Heptanoyl(6-Me)}-[Dab]T[Dab][Dab][Dab][dL]L[Dab][Dab]T; lactam 4-C),Statuts par microdilution,Escherichia coli [1]; strain EC_R16 (mcr-1 plasmid),Résistante
same,Statuts par microdilution,Escherichia coli [1]; strain EC_R17 (mcr-1 plasmid),Résistante
same,Statuts par microdilution,Escherichia coli [1]; strain EC_S10,Sensible
same,Statuts par microdilution,Escherichia coli [1]; strain EC_S15,Sensible
same,Statuts par microdilution,Klebsiella pneumoniae; strain KP_R9 (chromosomal),Résistante
same,Statuts par microdilution,Klebsiella pneumoniae; strain KP_S10,Sensible
same,Statuts par microdilution,Klebsiella pneumoniae; strain KP_S15,Sensible
same,Statuts par microdilution,Klebsiella pneumoniae; strain KR_R16 (chromosomal),Résistante
same,Sensible ou Résistante,Acinetobacter baumannii [2]; strain AB_R-E105,Résistante
same,Sensible ou Résistante,Acinetobacter baumannii [2]; strain AB_S044,Sensible
same,Sensible ou Résistante,Acinetobacter baumannii [2]; strain AB_S045,Sensible
same,Sensible ou Résistante,Acinetobacter baumannii [2]; strain AB_S046,Sensible
same,Sensible ou Résistante,Pseudomonas aeruginosa [3]; strain PA_RE66,Résistante
same,Sensible ou Résistante,Pseudomonas aeruginosa [3]; strain PA_RE68,Résistante
same,Sensible ou Résistante,Pseudomonas aeruginosa [3]; strain PA_S062,Sensible
same,Sensible ou Résistante,Pseudomonas aeruginosa [3]; strain PA_SE64,Sensible
same,sensitivity or resistance to colistin by MALDI-TOF,"Escherichia coli [4]; strain EC_R, 4 h at 37° C.",resistant
same,sensitivity or resistance to colistin by MALDI-TOF,"Escherichia coli [4]; strain EC_S, 4 h at 37° C.",sensitive
same,sensitivity or resistance to colistin by MALDI-TOF,"Escherichia coli [4]; strain R16, 30 min at 37° C.",resistance
same,sensitivity or resistance to colistin by MALDI-TOF,"Escherichia coli [4]; strain R16, 30 min at 50° C.",resistance
same,sensitivity or resistance to colistin by MALDI-TOF,"Escherichia coli [4]; strain S, 30 min at 37° C.",sensitive
same,sensitivity or resistance to colistin by MALDI-TOF,"Escherichia coli [4]; strain S, 30 min at 50° C.",sensitivity
same,sensitivity or resistance to colistin by MALDI-TOF,Acinetobacter baumannii [5]; strain AB_R-E105,resistant
same,sensitivity or resistance to colistin by MALDI-TOF,Acinetobacter baumannii [5]; strain AB_S044,sensitive
same,sensitivity or resistance to colistin by MALDI-TOF,Acinetobacter baumannii [5]; strain AB_S045,sensitive
same,sensitivity or resistance to colistin by MALDI-TOF,Acinetobacter baumannii [5]; strain AB_S046,sensitive
same,sensitivity or resistance to colistin by MALDI-TOF,Pseudomonas aeruginosa [6]; strain PA_RE66,resistant
same,sensitivity or resistance to colistin by MALDI-TOF,Pseudomonas aeruginosa [6]; strain PA_RE68,resistant
same,sensitivity or resistance to colistin by MALDI-TOF,Pseudomonas aeruginosa [6]; strain PA_S062,sensitive
same,sensitivity or resistance to colistin by MALDI-TOF,Pseudomonas aeruginosa [6]; strain PA_SE64,sensitive
